From PubChem BioAssay AID1259407 (Chemical Carcinogenesis Research Information System (CCRIS), 2018)
The source made the active and inactive calls. How the calls were made is not given here.

System: CCRIS mutagenicity, Ames/micronucleus/aberration tests
Test: CCRIS mutagenicity studies
[1] = Test System: AMES SALMONELLA TYPHIMURIUM, Strain/Indicator: TA98, Metabolic Activation: NONE, Method: PREINCUBATION
[2] = Test System: AMES SALMONELLA TYPHIMURIUM, Strain/Indicator: TA100, Metabolic Activation: NONE, Method: PREINCUBATION
[3] = Test System: AMES SALMONELLA TYPHIMURIUM, Strain/Indicator: TA1535, Metabolic Activation: HAMSTER, LIVER, S-9, AROCLOR 1254 (10%), Method: PREINCUBATION
[4] = Test System: AMES SALMONELLA TYPHIMURIUM, Strain/Indicator: TA1535, Metabolic Activation: NONE, Method: PREINCUBATION
[5] = Test System: AMES SALMONELLA TYPHIMURIUM, Strain/Indicator: TA1535, Metabolic Activation: RAT, LIVER, S-9, AROCLOR 1254 (10%), Method: PREINCUBATION

Measured: mutagenic call

O=C1CSC(=S)N1
inactive: Test System: AMES SALMONELLA TYPHIMURIUM, Strain/Indicator: TA98, Metabolic Activation: HAMSTER, LIVER, S-9, AROCLOR 1254 (10%), Method: PREINCUBATION inactive; negative | [1] inactive; negative | Test System: AMES SALMONELLA TYPHIMURIUM, Strain/Indicator: TA98, Metabolic Activation: RAT, LIVER, S-9, AROCLOR 1254 (10%), Method: PREINCUBATION inactive; negative | Test System: AMES SALMONELLA TYPHIMURIUM, Strain/Indicator: TA100, Metabolic Activation: HAMSTER, LIVER, S-9, AROCLOR 1254 (10%), Method: PREINCUBATION inactive; negative | [2] inactive; negative | Test System: AMES SALMONELLA TYPHIMURIUM, Strain/Indicator: TA100, Metabolic Activation: RAT, LIVER, S-9, AROCLOR 1254 (10%), Method: PREINCUBATION inactive; negative | [3] inactive; negative | [4] inactive; negative | [5] inactive; negative | Test System: AMES SALMONELLA TYPHIMURIUM, Strain/Indicator: TA1537, Metabolic Activation: HAMSTER, LIVER, S-9, AROCLOR 1254 (10%), Method: PREINCUBATION inactive; negative | Test System: AMES SALMONELLA TYPHIMURIUM, Strain/Indicator: TA1537, Metabolic Activation: NONE, Method: PREINCUBATION inactive; negative | Test System: AMES SALMONELLA TYPHIMURIUM, Strain/Indicator: TA1537, Metabolic Activation: RAT, LIVER, S-9, AROCLOR 1254 (10%), Method: PREINCUBATION inactive; negative

CC(=O)O[C@H]1CC[C@]2(C)[C@H]3CC[C@]4(C)[C@@H]([C@H](C)CCCC(C)C)CC[C@H]4[C@@H]3C[C@@H]3N(N4C(=O)c5ccccc5C4=O)[C@@]32C1 (stereo not given in full)
inactive: Test System: AMES SALMONELLA TYPHIMURIUM, Strain/Indicator: TA102, Metabolic Activation: NONE, Method: STANDARD PLATE inactive; negative
active: Test System: AMES SALMONELLA TYPHIMURIUM, Strain/Indicator: TA97A, Metabolic Activation: NONE, Method: STANDARD PLATE active; positive | Test System: AMES SALMONELLA TYPHIMURIUM, Strain/Indicator: TA97A, Metabolic Activation: RAT, LIVER, S-9, AROCLOR 1254, Method: STANDARD PLATE active; positive | Test System: AMES SALMONELLA TYPHIMURIUM, Strain/Indicator: TA98, Metabolic Activation: NONE, Method: STANDARD PLATE active; positive | Test System: AMES SALMONELLA TYPHIMURIUM, Strain/Indicator: TA100, Metabolic Activation: NONE, Method: STANDARD PLATE active; positive | Test System: AMES SALMONELLA TYPHIMURIUM, Strain/Indicator: TA100, Metabolic Activation: RAT, LIVER, S-9, AROCLOR 1254, Method: STANDARD PLATE active; positive | Test System: AMES SALMONELLA TYPHIMURIUM, Strain/Indicator: TA102, Metabolic Activation: RAT, LIVER, S-9, AROCLOR 1254, Method: STANDARD PLATE active; positive | Test System: AMES SALMONELLA TYPHIMURIUM, Strain/Indicator: TA104, Metabolic Activation: NONE, Method: STANDARD PLATE active; positive | Test System: AMES SALMONELLA TYPHIMURIUM, Strain/Indicator: TA104, Metabolic Activation: RAT, LIVER, S-9, AROCLOR 1254, Method: STANDARD PLATE active; positive

CCCCCCCCCCCCCC(=O)ON(C(=O)CCCCCCCCCCCCC)c1ccc2c(c1)Cc1ccccc1-2
active: Test System: UDS HUMAN FIBROBLASTS, Strain/Indicator: THY INCORP (NON-S-PHASE), Metabolic Activation: NONE, Method: AUTORADIOGRAPHY active; positive

Oc1c2ccccc2c2ccc3cccc4ccc1c2c43
active: Test System: CHINESE HAMSTER V-79, Strain/Indicator: V-79/8-AZAGUANINE, Metabolic Activation: NONE, Method: STANDARD PLATE active; positive

COc1cc(COC(=O)CCCCCCC(C)C)ccc1O
inactive: End Point: In vivo micronucleus, Test System: Bone marrow polychromatic erythrocytes, Species: Mouse, Strain/Sex: BDF1/male, Route: Oral inactive; negative | Test System: Ames Salmonella typhimurium, Strain/Indicator: TA98, Metabolic Activation: None, Method: Preincubation inactive; negative | Test System: Ames Salmonella typhimurium, Strain/Indicator: TA98, Metabolic Activation: Rat, Liver, S-9, Phenobarbital and 5,6-benzoflavone, Method: Preincubation inactive; negative | Test System: Ames Salmonella typhimurium, Strain/Indicator: TA100, Metabolic Activation: Rat, Liver, S-9, Phenobarbital and 5,6-benzoflavone, Method: Preincubation inactive; negative | Test System: Ames Salmonella typhimurium, Strain/Indicator: TA1535, Metabolic Activation: None, Method: Preincubation inactive; negative | Test System: Ames Salmonella typhimurium, Strain/Indicator: TA1535, Metabolic Activation: Rat, Liver, S-9, Phenobarbital and 5,6-benzoflavone, Method: Preincubation inactive; negative | Test System: Ames Salmonella typhimurium, Strain/Indicator: TA1537, Metabolic Activation: Rat, Liver, S-9, Phenobarbital and 5,6-benzoflavone, Method: Preincubation inactive; negative | Test System: E. coli, Strain/Indicator: WP2 uvrA, Metabolic Activation: None, Method: Preincubation inactive; negative | Test System: E. coli, Strain/Indicator: WP2 uvrA, Metabolic Activation: Rat, Liver, S-9, Phenobarbital and 5,6-benzoflavone, Method: Preincubation inactive; negative

CCN(CC)C(=O)c1cccc(C)c1
inactive: End Point: In vitro chromosomal aberrations, Test System: Chinese hamster ovary (CHO-K1) cells, Metabolic Activation: None inactive; negative | End Point: In vitro chromosomal aberrations, Test System: Chinese hamster ovary (CHO-K1) cells, Metabolic Activation: Rat, Liver, S-9, Aroclor 1254 inactive; negative | Test System: AMES SALMONELLA TYPHIMURIUM, Strain/Indicator: TA97, Metabolic Activation: HAMSTER, LIVER, S-9, AROCLOR 1254 (10%), Method: PREINCUBATION inactive; negative | Test System: AMES SALMONELLA TYPHIMURIUM, Strain/Indicator: TA97, Metabolic Activation: HAMSTER, LIVER, S-9, AROCLOR 1254 (30%), Method: PREINCUBATION inactive; negative | Test System: AMES SALMONELLA TYPHIMURIUM, Strain/Indicator: TA97, Metabolic Activation: NONE, Method: PREINCUBATION inactive; negative | Test System: AMES SALMONELLA TYPHIMURIUM, Strain/Indicator: TA97, Metabolic Activation: RAT, LIVER, S-9, AROCLOR 1254 (10%), Method: PREINCUBATION inactive; negative | Test System: AMES SALMONELLA TYPHIMURIUM, Strain/Indicator: TA97, Metabolic Activation: RAT, LIVER, S-9, AROCLOR 1254 (30%), Method: PREINCUBATION inactive; negative | Test System: AMES SALMONELLA TYPHIMURIUM, Strain/Indicator: TA98, Metabolic Activation: HAMSTER, LIVER, S-9, AROCLOR 1254 (10 OR 30%), Method: PREINCUBATION inactive; negative | [1] inactive; negative | Test System: AMES SALMONELLA TYPHIMURIUM, Strain/Indicator: TA98, Metabolic Activation: RAT, LIVER, S-9, AROCLOR 1254 (10 OR 30%), Method: PREINCUBATION inactive; negative | Test System: AMES SALMONELLA TYPHIMURIUM, Strain/Indicator: TA100, Metabolic Activation: HAMSTER, LIVER, S-9, AROCLOR 1254 (10 OR 30%), Method: PREINCUBATION inactive; negative | [2] inactive; negative | Test System: AMES SALMONELLA TYPHIMURIUM, Strain/Indicator: TA100, Metabolic Activation: RAT, LIVER, S-9, AROCLOR 1254 (10 OR 30%), Method: PREINCUBATION inactive; negative | [3] inactive; negative | Test System: AMES SALMONELLA TYPHIMURIUM, Strain/Indicator: TA1535, Metabolic Activation: HAMSTER, LIVER, S-9, AROCLOR 1254 (30%), Method: PREINCUBATION inactive; negative | [4] inactive; negative | [5] inactive; negative | Test System: AMES SALMONELLA TYPHIMURIUM, Strain/Indicator: TA1535, Metabolic Activation: RAT, LIVER, S-9, AROCLOR 1254 (30%), Method: PREINCUBATION inactive; negative
